Laboratory results published in patent publication US20160000126A1, “MODULATION OF SALTY TASTE […] ALTERING THE FUNCTION OF BITTER- OR PKD2L1-[…] RECEPTOR CELLS” (THE TRUSTEES OF COLUMBIA UNIVERSITY IN THE CITY OF NEW YORK, priority 2013, published 2016).

Assays:
[1] = tested on: bitter taste receptor cells / high-salt sensing pathway; experiment: chorda tympani nerve recordings before and after AITC application to the tongue; type: in vivo, mice
Method: Lingual stimulation and recording procedures were performed as previously described (Chandrashekar et al. (2010); Nelson et al. (2002)). Data analysis used the integrated response during the 5 seconds of tastant stimulation.
Responses to 20 mM citric acid (FIGS. 2 and 3), 60 mM NaCl (FIG. 8, 12, and 13), or 250 mM KCl before AITC application (FIG. 13) were used to normalize responses for each experimental series. For FIG. 7, data were normalized to 20 mM citric acid and then scaled to WT responses before AITC application. Data were analyzed for statistical significance using an unpaired, one-tailed Student's t-test and 95% confidence limits.
To compute the amiloride-sensitive salt component, the stimulation regime involved sequential applications of NaCl solutions first without, and then with, amiloride (5 seconds pre- or pre- and post-incubation and co-application with NaCl solution) in the same experimental series. The amiloride-insensitive component was defined as the response in the presence of amiloride. The fraction of the response inhibited by amiloride was defined as the amiloride-sensitive component (amiloride-sensitive component=response without amiloride−response with amiloride).
For pharmacological inhibition studies using allyl isothiocyanate (AITC), responses to a series of taste stimuli were measured. Then 3 mM AITC (Aldrich, 377430-5G) was applied to the tongue at a rate of 6 ml/minute for 5 minutes. The tongue was washed with artificial saliva for 1 minute and nerve responses to the same series of taste stimuli measured. Responses before and after AITC were compared for each animal. To minimize effects of recovery, responses after AITC were recorded within 15 minutes of AITC treatment.

[2] = tested on: tongue carbonic anhydrases; experiment: chorda tympani nerve recordings before and after DZA treatment of the tongue; type: in vivo, mice
[3] = tested on: T2R32-Sapphire positive taste cells; experiment: calcium imaging of fungiform taste receptor cells; type: cell-based; details: T2R32-Sapphire mice; for response of T2R32-Sapphire positive taste cells to stimulus: 500 mM KCl (high-salt), 100 mM citric acid (sour)
Method: Calcium imaging from fungiform TRCs was performed as previously described (Chandrashekar et al. (2010); Oka et al. (2006)).
Fungiform TRCs were loaded in vivo with Calcium Green-1 dextran 3 kD (Invitrogen) by electroporating individual taste buds. Tongues were removed 24-36 hours after dye loading, and the epithelium was peeled enzymatically and placed in a custom recording chamber. The apical surface of the preparation was bathed in a constant flow of artificial saliva, and taste stimuli were delivered by focal application to individual taste buds. Tastants were applied for 1 second, with a minimum of 10 seconds of artificial saliva between stimuli. Changes in [Ca2+]i were monitored using a 5-Live confocal microscope (Zeiss) equipped with a ×40 C-Apochromat 1.20 W objective; images were captured at 4 Hz, and ΔF/F from individual TRCs analyzed and pseudo-colored as described previously (Chandrashekar et al. (2010)).
To identify sapphire positive cells in T2R32-Sapphire mice, 405-nm excitation laser to separate sapphire and Calcium Green-1 fluorescence was used. Mean cellular fluorescence intensity (F) was calculated for the individual TRCs and basal fluorescence (Fo) was assigned to each cell by averaging fluorescence intensity over 3 seconds just before tastant application. ΔF/F was calculated as [F−Fo]/Fo; taste cells were considered responders when ΔF/F exceeded 3 standard deviations above Fo within 5 seconds of tastant application.

CA4 = CA4 (Mus musculus, UniProt Q64444); details: TRPM5-KO mice; before and after addition of 30 mM KHCO3 (pH7.4)
Chain of CA4 (Q64444 18-277): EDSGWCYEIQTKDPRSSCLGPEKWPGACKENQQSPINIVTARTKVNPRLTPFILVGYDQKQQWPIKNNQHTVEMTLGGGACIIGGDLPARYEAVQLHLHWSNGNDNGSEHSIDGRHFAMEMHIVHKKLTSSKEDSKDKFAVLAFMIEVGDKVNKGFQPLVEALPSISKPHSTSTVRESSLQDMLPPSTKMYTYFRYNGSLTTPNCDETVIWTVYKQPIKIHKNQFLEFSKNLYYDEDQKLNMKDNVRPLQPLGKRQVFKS

[4] = control and T2R-PLC rescue animals, AITC treatment

## C=CCN=C=S [AITC, allyl isothiocyanate]
[1]; 1 mM cycloheximide, 1 and 30 minutes after AITC treatment
  chorda tympani responses to high concentration of bitter tastant cycloheximide: strongly suppresses
[1]; 10 mM denatonium and 10 mM quinine, after AITC treatment
  chorda tympani responses to other bitter tastants: suppressed
[1]; 20 mM citric acid, after AITC treatment
  chorda tympani response to sour taste: remained unimpaired
[1]; 5 minutes exposure of the tongue to 3 mM AITC
  taste response evoked by AITC itself: minimal taste response
[1]; AITC treatment, FIG. 7
  fraction of high-salt neural responses eliminated: about 50%
[1]; PKD2L1-TeNT mice, further treatment with AITC
  remaining high-salt (KCl) responses in PKD2L1-TeNT mice: effectively abolished
[1]; TRPA1-KO mice, with and without AITC
  bitter and high-salt taste responses in TRPA1-KO mice: robust AITC-mediated suppression
[1]; TRPM5-KO and PLCβ2-KO mice, before and after AITC
  nerve responses to high salt in TRPM5 and PLCβ2 knockout mice: no longer sensitive
[1]; [4]
  chorda tympani responses to 0.1 mM cycloheximide: almost completely suppressed
  chorda tympani responses to 500 mM KCl and 500 mM NaCl in the presence of 10 μM amiloride: reduced by half
[1]; wild type mice, 0.1 mM cycloheximide, after 3 mM AITC
  chorda tympani bitter responses: completely inhibited
[1]; wild type mice, 60 mM NaCl, after 3 mM AITC
  chorda tympani responses to low salt: did not affect
[1]; wild type mice, 250 or 500 mM NaCl + amiloride and KCl, after 3 mM AITC for 5 minutes
  chorda tympani responses to high-salt: significantly suppressed
[1]; wild type mice, after 3 mM AITC
  chorda tympani responses to KCl (selectively activates the high-salt pathway): Identical suppression
[1]; wild type mice, sour, sweet, umami tastants, after 3 mM AITC
  chorda tympani responses to other taste qualities: did not affect

## CCN[C@H]1C[C@H](C)S(=O)(=O)c2sc(S(N)(=O)=O)cc21 [DZA, dorzolamide]
[2]; PKD2L1-TeNT mice, various salts, 0.5% w/v DZA
  taste responses from PKD2L1-TeNT mice: completely insensitive
[2]; TRPM5-KO mice, 20 mM citric acid, 60 mM NaCl, 0.5% w/v DZA
  sour and low salt taste responses: insensitive
[2]; TRPM5-KO mice, 0.5% w/v DZA
  CO2 chorda tympani responses: affected
[2]; TRPM5-KO mice, 0.5% w/v DZA for 5 minutes
  high-salt induced chorda tympani responses from sour taste cells: reduced

## [Cl-].[K+] [KCl, potassium chloride]
[3]; 500 mM KCl
  number of Sapphire-positive cells activated: 12 cells
[3]
  response of T2R32-Sapphire positive taste cells to stimulus: responded

## O=C(O)O [KHCO3]
CA4
  chorda tympani responses to 500 mM KCl or 100 mM CaCl2 (PKD2L1-cell mediated high-salt responses): strong inhibition

## O=C(O)CC(O)(CC(=O)O)C(=O)O [citric acid]
[3]
  response of T2R32-Sapphire positive taste cells to stimulus: not
